In US20240425486A1, “FUSED BICYCLIC SUBSTITUTED N-(1H-INDOL-7-YL)BENZENESULFONAMIDES AND USES THEREOF” (Triana Biomedicines, Inc., priority 2021, published 2024):

Tests used:
DCAF15/RBM39 = DCAF15/RBM39 (Homo sapiens (Human), UniProt Q14498+Q66K64); test: AlphaLISA compound-induced DCAF15-RBM39 ternary complex formation; assay type: binding; settings: His-tagged DCAF15 complex and biotin-carrying RBM39
Experimental: Example 7: Quantitative Evaluation of Compound-Induced Ternary Complex Formation Using Amplified Luminescent Proximity Homogeneous Assay
Compound-induced DCAF15-RBM39 ternary complex formation was monitored using AlphaLISA® assays (Perkin Elmer, Waltham, MA). Test compounds were first collected in a 384-well microplate (cat. #781280, Grenier Bio-One, Monroe, NC) as 2 mM stocks in 100% dimethyl sulfoxide (DMSO). These stocks were then serially diluted in DMSO by 3-fold into a new plate (cat. #781280, Grenier Bio-One, Monroe, NC) using a Mosquito HTS dispenser (Mosquito® HTS, SPT Labtech, Boston, MA). 0.2 μL of these diluted stocks were then dispensed into a 384-well Optiplate (cat. #6007290, Perkin Elmer, Waltham, MA) in duplicate wells, to assemble the final assay plate consisting of duplicated dose ranges. Separately, a protein mixture consisting of His-tagged DCAF15 complex and biotin-carrying RBM39, each at 408 nM (2.04×), was prepared in 50 mM HEPES, pH 7.5, 100 mM NaCl, 2 mM MgCl2, 0.1% BSA, 2 mM TCEP, 0.05% Tween-20 (dilution buffer). 9.8 μL of this protein mixture was then mixed with the compounds in the assay plate and incubated for one hour at room temperature. Reaction mixtures with no compounds added were included as negative controls, while a His-tagged and biotinylated GST protein was included to track general assay performance. Nickel Chelate AlphaLISA Acceptor beads (cat. #AL108M, Perkin Elmer, MA) and AlphaScreen Streptavidin Donor beads (cat. #6760002, Perkin Elmer, Waltham, MA) were prepared separately in the dilution buffer as 4× stocks (80 ug/ml). The beads were then added to the assay plate sequentially with incubation at room temperature for 1-2 hours after each addition. Signals were recorded using EnVision 2104 Multilabel Plate Reader (Perkin Elmer, Waltham, MA) and titration curves were generated in GraphPad Prism (7.00, GraphPad, La Jolla, CA).

DCAF15 = DCAF15 (Homo sapiens (Human), UniProt Q66K64); test: HTRF competition assay, binary interaction with DCAF15; assay type: binding; settings: competition with Alexa Fluor 647 tracer
Chain of DCAF15 (Q66K64 whole entry): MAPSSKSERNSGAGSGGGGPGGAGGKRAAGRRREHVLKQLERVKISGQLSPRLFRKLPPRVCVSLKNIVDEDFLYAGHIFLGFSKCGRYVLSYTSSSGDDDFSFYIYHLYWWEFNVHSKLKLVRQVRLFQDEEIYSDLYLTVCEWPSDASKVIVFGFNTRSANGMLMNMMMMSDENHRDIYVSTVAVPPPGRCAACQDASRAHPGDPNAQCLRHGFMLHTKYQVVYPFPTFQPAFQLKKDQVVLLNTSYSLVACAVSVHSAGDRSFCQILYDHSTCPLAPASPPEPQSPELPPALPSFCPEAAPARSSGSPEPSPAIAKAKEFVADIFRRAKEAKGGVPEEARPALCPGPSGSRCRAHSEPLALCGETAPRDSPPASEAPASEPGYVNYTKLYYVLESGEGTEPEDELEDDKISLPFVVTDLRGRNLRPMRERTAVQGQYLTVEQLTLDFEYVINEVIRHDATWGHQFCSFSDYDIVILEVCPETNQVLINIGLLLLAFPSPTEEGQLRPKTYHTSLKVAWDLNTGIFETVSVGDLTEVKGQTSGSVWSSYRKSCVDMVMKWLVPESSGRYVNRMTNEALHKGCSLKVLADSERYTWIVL
Chain of DCAF15 (Q16531 whole entry partner): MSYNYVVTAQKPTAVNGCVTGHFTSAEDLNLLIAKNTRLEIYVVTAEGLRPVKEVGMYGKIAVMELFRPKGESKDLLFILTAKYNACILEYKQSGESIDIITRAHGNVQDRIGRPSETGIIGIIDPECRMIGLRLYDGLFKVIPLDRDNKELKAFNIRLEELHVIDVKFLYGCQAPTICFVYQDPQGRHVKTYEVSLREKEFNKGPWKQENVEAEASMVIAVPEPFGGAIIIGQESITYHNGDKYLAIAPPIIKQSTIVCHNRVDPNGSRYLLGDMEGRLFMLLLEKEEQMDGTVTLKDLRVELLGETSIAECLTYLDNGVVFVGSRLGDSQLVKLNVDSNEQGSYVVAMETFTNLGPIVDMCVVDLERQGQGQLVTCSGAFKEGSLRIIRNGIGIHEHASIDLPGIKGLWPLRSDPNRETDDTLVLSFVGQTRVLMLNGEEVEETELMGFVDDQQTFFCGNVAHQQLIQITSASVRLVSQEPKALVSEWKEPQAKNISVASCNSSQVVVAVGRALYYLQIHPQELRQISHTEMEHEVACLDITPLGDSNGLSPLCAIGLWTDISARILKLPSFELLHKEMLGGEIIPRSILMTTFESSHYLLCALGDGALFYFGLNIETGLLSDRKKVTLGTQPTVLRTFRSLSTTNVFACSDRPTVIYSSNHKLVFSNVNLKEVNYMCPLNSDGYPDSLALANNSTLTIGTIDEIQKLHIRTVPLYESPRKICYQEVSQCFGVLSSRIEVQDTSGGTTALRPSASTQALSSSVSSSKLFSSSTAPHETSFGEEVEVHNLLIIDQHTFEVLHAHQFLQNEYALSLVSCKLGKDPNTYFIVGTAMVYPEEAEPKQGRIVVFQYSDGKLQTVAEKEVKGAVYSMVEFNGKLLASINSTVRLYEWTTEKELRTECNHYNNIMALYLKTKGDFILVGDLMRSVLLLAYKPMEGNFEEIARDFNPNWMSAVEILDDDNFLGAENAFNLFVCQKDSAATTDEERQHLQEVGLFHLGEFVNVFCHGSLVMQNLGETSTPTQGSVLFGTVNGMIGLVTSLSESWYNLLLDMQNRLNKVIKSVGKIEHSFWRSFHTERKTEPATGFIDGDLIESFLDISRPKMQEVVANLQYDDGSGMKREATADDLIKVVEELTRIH
Experimental: Example 8: Measurement of Binary Interaction Between Compounds and DCAF15 Using Homogeneous Time Resolved Fluorescence (HTRF)
DCAF15 interactions with test compounds were monitored using HTRF competition assays (Cisbio, Bedford, MA). Test compounds were first collected in a 384-well microplate (cat. #781280, Grenier Bio-One, Monroe, NC) as 10 mM stocks in 100% dimethyl sulfoxide (DMSO). A second stock plate (cat. #781280, Grenier Bio-One, Monroe, NC) was prepared through 3-fold serial dilution in DMSO of the afore-mentioned stocks using a Mosquito HTS dispenser (mosquito@ HTS, SPT Labtech, Boston, MA). 0.2 μL of these diluted stocks were then dispensed into a 384-well Optiplate (cat. #6007290, Perkin Elmer, Waltham, MA) in duplicate wells, to assemble the assay plate. The tracer molecule containing an Alexa Fluor 647 probe was prepared in 25 mM HEPES pH 7.5, 100 mM NaCl, 0.1 mg/ml BSA, 0.005% Tween 20, 0.5 mM TCEP (dilution buffer) to 612 nM (2.04×). Separately, His-tagged DCAF15 complex was prepared at 32 nM (4×) in the dilution buffer, and mAb Anti-6His-Eu cryptate Gold (cat. #61H12KLA, Cisbio, Bedford, MA) at 4× dilution in the detection buffer (cat. #61DB9RDF, Cisbio, Bedford, MA). These two solutions were mixed and incubated for 15 min at room temperature. 9.8 μL of the tracer solution and 10 μL of the DCAF15/mAb Anti-6His-Eu cryptate Gold mixture were added sequentially to each well in the assay plate. Reaction mixtures with no DCAF15 added were included as positive controls. The final mixture was incubated for an hour at room temperature and spun down briefly before data collection at 615 nm and 666 nm using EnVision 2104 Multilabel Plate Reader (Perkin Elmer, Bedford, MA). Binding was estimated based on ratiometric analysis and titration curves were generated in GraphPad Prism (7.00, GraphPad, La Jolla, CA).

Chain of DCAF15/RBM39 (Q66K64 whole entry, species assumed): as the sequence (Q66K64 whole entry) above
Chain of DCAF15/RBM39 (Q14498 whole entry, species assumed): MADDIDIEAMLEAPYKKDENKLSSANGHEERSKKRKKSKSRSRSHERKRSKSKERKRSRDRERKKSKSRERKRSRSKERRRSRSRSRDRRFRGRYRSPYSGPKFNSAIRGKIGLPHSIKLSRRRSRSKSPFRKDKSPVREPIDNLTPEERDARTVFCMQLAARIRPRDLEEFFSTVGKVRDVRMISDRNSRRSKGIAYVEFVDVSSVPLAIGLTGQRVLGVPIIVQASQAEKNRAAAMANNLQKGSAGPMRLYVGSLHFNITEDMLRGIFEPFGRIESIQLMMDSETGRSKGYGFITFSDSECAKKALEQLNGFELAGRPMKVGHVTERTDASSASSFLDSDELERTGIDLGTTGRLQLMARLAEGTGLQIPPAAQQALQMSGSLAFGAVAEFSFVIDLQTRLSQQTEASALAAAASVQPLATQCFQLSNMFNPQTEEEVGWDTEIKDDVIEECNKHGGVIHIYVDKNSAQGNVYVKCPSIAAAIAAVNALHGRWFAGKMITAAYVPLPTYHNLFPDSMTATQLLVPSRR
Chain of DCAF15/RBM39 (Q16531 whole entry partner, species assumed): as the sequence (Q16531 whole entry partner) above

SMILES	EC50 (DCAF15/RBM39)	IC50 (DCAF15)
O=C(N1CCc2ccc(S(=O)(=O)Nc3ccc(Cl)c4c(Cl)c[nH]c34)cc2C1)C(F)(F)F [Compound 33]	≤ 1000 nM	
O=C1OCc2ccc(S(=O)(=O)Nc3ccc(Cl)c4c(Cl)c[nH]c34)cc21 [Compound 10]	≤ 1000 nM	1000 to 10000 nM
O=C1CCOc2ccc(S(=O)(=O)Nc3ccc(Cl)c4c(Cl)c[nH]c34)cc21 [Compound 30]	1000 to 10000 nM	
O=S(=O)(Nc1ccc(Cl)c2c(Cl)c[nH]c12)c1ccc2ccccc2c1F [Compound 25]	≤ 1000 nM	1000 to 10000 nM
O=C1Nc2ccc(S(=O)(=O)Nc3ccc(Cl)c4c(Cl)c[nH]c34)cc2C1=O [Compound 14]	1000 to 10000 nM	1000 to 10000 nM
O=C1COc2ccc(S(=O)(=O)Nc3ccc(Cl)c4c(Cl)c[nH]c34)cc2N1 [Compound 39]	1000 to 10000 nM	
CC(=O)N[C@H]1Cc2ccc(S(=O)(=O)Nc3ccc(Cl)c4c(Cl)c[nH]c34)cc2C1 [Compound 8]	≤ 1000 nM	1000 to 10000 nM
CC(C)(C)OC(=O)N1CCCc2cc(S(=O)(=O)Nc3ccc(Cl)c4c(Cl)c[nH]c34)ccc2C1 [Compound 46]	1000 to 10000 nM	
CC(=O)N1Cc2ccc(S(=O)(=O)Nc3ccc(Cl)c4c(Cl)c[nH]c34)cc2C1 [Compound 15]	1000 to 10000 nM	1000 to 10000 nM
O=C1COc2cc(S(=O)(=O)Nc3ccc(Cl)c4c(Cl)c[nH]c34)cnc2N1 [Compound 45]	≤ 1000 nM	10000 to 100000 nM
O=c1ccc2cc(S(=O)(=O)Nc3ccc(Cl)c4c(Cl)c[nH]c34)ccc2[nH]1 [Compound 37]	≤ 1000 nM	1000 to 10000 nM
CC(C)(C)OC(=O)N1CCCc2cc(S(=O)(=O)Nc3ccc(Cl)c4c(Cl)c[nH]c34)ccc2C1 [Compound 47]	≤ 1000 nM	1000 to 10000 nM
O=C1NCCOc2ccc(S(=O)(=O)Nc3ccc(Cl)c4c(Cl)c[nH]c34)cc21 [Compound 48]	≤ 1000 nM	1000 to 10000 nM
O=C1COc2cc(S(=O)(=O)Nc3ccc(Cl)c4c(Cl)c[nH]c34)ccc2N1 [Compound 40]	≤ 1000 nM	
O=C1CCc2cc(S(=O)(=O)Nc3ccc(Cl)c4c(Cl)c[nH]c34)c(F)cc2N1 [Compound 35]	1000 to 10000 nM	1000 to 10000 nM
O=S(=O)(Nc1ccc(Cl)c2c(Cl)c[nH]c12)c1cc(Br)c2c(c1)OCCO2 [Compound 38]	1000 to 10000 nM	1000 to 10000 nM
O=S(=O)(Nc1ccc(Cl)c2c(Cl)c[nH]c12)c1ccc2c(Cl)ccc(Cl)c2c1 [Compound 28]	10000 to 100000 nM	
Cn1cc(S(=O)(=O)Nc2ccc(Cl)c3c(Cl)c[nH]c23)c2ccccc21 [Compound 2]	1000 to 10000 nM	
Cn1c(=O)oc2cc(S(=O)(=O)Nc3ccc(Cl)c4c(Cl)c[nH]c34)ccc21 [Compound 22]	≤ 1000 nM	1000 to 10000 nM
CC1(C)CC(=O)Nc2ccc(S(=O)(=O)Nc3ccc(Cl)c4c(Cl)c[nH]c34)cc21 [Compound 36]	≤ 1000 nM	1000 to 10000 nM
CC(=O)N1CCc2cc(S(=O)(=O)Nc3ccc(Cl)c4c(Cl)c[nH]c34)ccc21 [Compound 12]	1000 to 10000 nM	1000 to 10000 nM
Cn1c(=O)c2cc(S(=O)(=O)Nc3ccc(Cl)c4c(Cl)c[nH]c34)ccc2n(C)c1=O [Compound 43, N-(3,4-dichloro-1H-indol-7-yl)-1,3-dimethyl-2,4-dioxo-1,2,3,4-tetrahydroquinazoline-6-sulfonamide]	≤ 1000 nM	
CN1C(=O)c2ccc(S(=O)(=O)Nc3ccc(Cl)c4c(Cl)c[nH]c34)cc2C1=O [Compound 16]	1000 to 10000 nM	1000 to 10000 nM
O=c1[nH]c2ccc(S(=O)(=O)Nc3ccc(Cl)c4c(Cl)c[nH]c34)cc2o1 [Compound 21]	1000 to 10000 nM	
O=C1CCSc2ccc(S(=O)(=O)Nc3ccc(Cl)c4c(Cl)c[nH]c34)cc2N1 [Compound 49]	≤ 1000 nM	1000 to 10000 nM
Cn1c(=O)n(C)c2cc(S(=O)(=O)Nc3ccc(Cl)c4c(Cl)c[nH]c34)ccc21 [Compound 19]	1000 to 10000 nM	10000 to 100000 nM
O=S(=O)(Nc1ccc(Cl)c2c(Cl)c[nH]c12)c1cc2cc(F)ccc2s1 [Compound 5]	1000 to 10000 nM	
